Experimental data as given in patent US20140323349A1, “COMPOSITIONS AND METHODS FOR MONITORING AND DETECTING CANCEROUS CONDITIONS” (PHIGENIX, INC., priority 2011, published 2014).
Entries after “also recorded” stand apart in the source; their conditions may differ.

Legend:
Type in all cases: cell-based, human
[1] = tested on: phospho-JNK; test: Western blot of phospho-JNK; conditions: DU145
Description: (§1) Western blot analysis was performed as described in Example 2. […] After washing, the membranes were incubated with anti-rabbit antibody conjugated to horseradish peroxidase (HRP) (dilution 1:5000; Sigma), and signal detection was visualized using chemilluminescence reagents (Pierce) on an Alpha Innotech Fluorchem 8900. As a control, blots were stripped and re-probed with mouse anti-β-actin primary antibody (1:5000; Sigma-Aldrich) and HRP-conjugated anti-mouse secondary antibody (1:5000; Sigma-Aldrich), and signal detection was again visualized.

[2] = tested on: phospho-STAT3; test: Western blot of phospho-STAT3; conditions: DU145
Description: as §1

[3] = tested on: PAX2; test: PAX2 expression after treatment with AngII or receptor blockers; conditions: for reduction of PAX2 expression: versus untreated control
Description: Western blot analysis was performed as described in Example 2. […] After washing, the membranes were incubated with anti-rabbit antibody conjugated to horseradish peroxidase (HRP) (dilution 1:5000; Sigma), and signal detection was visualized using chemilluminescence reagents (Pierce) on an Alpha Innotech Fluorchem 8900. As a control, blots were stripped and re-probed with mouse anti-β-actin primary antibody (1:5000; Sigma-Aldrich) and HRP-conjugated anti-mouse secondary antibody (1:5000; Sigma-Aldrich), and signal detection was again visualized. Quantitative real-time RT-PCR was performed as described in Example 1 to verify changes in gene expression following PAX2 knockdown in PC3 and DU145 prostate cancer cell lines and the hPrEC normal prostate epithelial cells. Forty cycles of PCR were performed under standard conditions using an annealing temperature of 60° C. Quantification was determined by the cycle number where exponential amplification began (threshold value) and averaged from the values obtained from the triplicate repeats. There was an inverse relationship between message level and threshold value. In addition, GAPDH was used as a housekeeping gene to normalize the initial content of total cDNA. Relative expression was calculated as the ratio between each genes and GAPDH. All reactions were carried out in triplicate.

[4] = tested on: phospho-PAX2; test: Western blot of phospho-PAX2; conditions: DU145
Description: as §1

[5] = tested on: phospho-ERK 1/2; test: Western blot of phospho-ERK 1/2; conditions: DU145
Description: as §1

[6] = tested on: DU145 cells; test: [3H]thymidine incorporation proliferation assay
Description: Proliferation of cells was determined by [^3H] thymidine ribotide ([3H]TdR) incorporation into DNA. 0.5×10^6 cells/well of suspension DU145 cells were plated in their appropriate media. Cells were incubated for 72 h with or without the presence of AngII at the indicated concentrations. Cells were exposed to 37 kBq/ml [methyl-3H]thymidine in the same medium for 6 h. The adherent cells were fixed by 5% trichloroacetic acid and lysed in SDS/NaOH lysis buffer overnight. Radioactivity was measured by Beckman LS3801 liquid scintillation counter (Canada). Suspension cell cultures were harvested by cell harvester (Packard Instrument Co., Meriden, Conn.), and radioactivity was measured by 1450 microβ liquid scintillation counter (PerkinElmer Life Sciences).

[7] = tested on: ERK; test: Western blot of ERK; conditions: DU145
Description: as §1

[8] = tested on: PAX2 protein; test: Western blot analysis of PAX2 protein; conditions: DU145; 5 uM Los, 25 uM U0126, 20 uM PD98059, 250 μM AICAR
Description: Briefly, cells were harvested by trypsinization and washed twice with PBS. Lysis buffer was prepared according to the manufacturer's instructions (Sigma), and was then added to the cells. Following a 15 minute incubation period at 4° C. on an orbital shaker, cell lysate were then collected and centrifuged for 10 minutes at 12000×g to pellet cellular debris. The protein-containing supernatant were then collected and quantitated. Next, 25 μg protein extract was loaded onto an 8-16% gradient SDS-PAGE (Novex). Following electrophoresis, proteins were transferred to PVDF membranes, and then blocked with 5% nonfat dry milk in TTBS (0.05% Tween 20 and 100 mM Tris-C1) for 1 hour. Blots were then probed with rabbit anti-PAX2 primary antibody (Zymed, San Francisco, Calif.) at a 1:2000 dilution. After washing, the membranes were incubated with anti-rabbit antibody conjugated to horseradish peroxidase (HRP) (dilution 1:5000; Sigma), and signal detection was visualized using chemilluminescence reagents (Pierce) on an Alpha Innotech Fluorchem 8900. As a control, blots were stripped and reprobed with mouse anti-β-actin primary antibody (1:5000; Sigma-Aldrich) and HRP-conjugated anti-mouse secondary antibody (1:5000; Sigma-Aldrich) and signal detection was again visualized.
Western blot analysis was performed as described in Example 2. Blots were then probed with primary antibody (anti-PAX2, -phospho-PAX2, -JNK, -phospho-JNK, -ERK1/2, or -phospho-ERK1/2) (Zymed, San Francisco, Calif.) at 1:1000-2000 dilutions. After washing, the membranes were incubated with anti-rabbit antibody conjugated to horseradish peroxidase (HRP) (dilution 1:5000; Sigma), and signal detection was visualized using chemilluminescence reagents (Pierce) on an Alpha Innotech Fluorchem 8900. As a control, blots were stripped and re-probed with mouse anti-β-actin primary antibody (1:5000; Sigma-Aldrich) and HRP-conjugated anti-mouse secondary antibody (1:5000; Sigma-Aldrich), and signal detection was again visualized.

[9] = tested on: DEFB1; test: QRT-PCR of DEFB1 (hBD-1) expression; conditions: 10 μM
Description: Briefly, total RNA was isolated using the SV Total RNA Isolation System (Promega, Madison, Wis.) from approximately 1×10^6 cells harvested by trypsinizing. Cells were lysed and total RNA was isolated by centrifugation through spin columns. For cells collected by LCM, total RNA was isolated using the PicoPure RNA Isolation Kit (Arcturus Biosciences, Mt. View, Calif.) following the manufacturer's protocol. Total RNA (0.5 μg per reaction) from both sources was reverse transcribed into cDNA utilizing random primers (Promega). AMV Reverse Transcriptase II enzyme (500 units per reaction; Promega) was used for first strand synthesis and Tfl DNA Polymerase for second strand synthesis (500 units per reaction; Promega) as per the manufacturer's protocol. In each case, 50 pg of cDNA was used per ensuing PCR reaction. Two-step QRT-PCR was performed on cDNA generated using the MultiScribe Reverse Transcripatase from the TaqMan Reverse Transcription System and the SYBR® Green PCR Master Mix (Applied Biosystems).
Forty cycles of PCR were performed under standard conditions using an annealing temperature of 56° C. In addition, β-actin (Table 2) was amplified as a housekeeping gene to normalize the initial content of total cDNA. […]
Quantitative real-time RT-PCR was performed as described in Example 1 to verify changes in gene expression following PAX2 knockdown in PC3 and DU145 prostate cancer cell lines and the hPrEC normal prostate epithelial cells. […] Quantification was determined by the cycle number where exponential amplification began (threshold value) and averaged from the values obtained from the triplicate repeats. […] Relative expression was calculated as the ratio between each genes and GAPDH. […]
QRT-PCR was performed as previously described (Gibson et al., 2007). […] Gene expression in benign prostate tissue samples was calculated as the expression ratio compared to β-actin. Levels of hBD-1 expression in malignant prostate tissue, hPREC prostate primary culture, and prostate cancer cell lines before and after induction were calculated relative to the average level of hBD-1 expression in hPrEC cells. […]

CCCCc1nc(Cl)c(CO)n1Cc1ccc(-c2ccccc2-c2nn[nH]n2)cc1 [Los, Losartan]
phospho-JNK protein levels [1]: did not decrease phospho-JNK protein levels; also recorded: failed to decrease phospho-JNK protein levels
phospho-STAT3 protein levels [2]: reduced phospho-STAT3 protein levels; also recorded: suppress phospho-STAT3 protein levels
effect on AngII effect on PAX2 expression ([3]; DU145): blocks the effect of Angiotensin II (AngII) effect on PAX2 expression
reduction of PAX2 expression ([3]; DU145, 48 hours): 37%
reduction of PAX2 expression ([3]; DU145, 72 hours): 50%
phospho-PAX2 protein levels [4]: significant decrease or suppression of phospho-PAX2 protein levels; also recorded: suppress phospho-PAX2 protein expression levels
phospho-ERK [5]: reduced the amount of phospho-ERK; also recorded: suppresses phospho-ERK 1/2 and PAX2 protein levels
decrease in proliferation rate ([6]; DU145): 50%
effect on AngII-induced proliferation ([6]; DU145, pre-treating for 30 min): suppressed the effect of AngII on proliferation
ERK protein levels [7]: no effect on ERK protein levels
PAX2 expression / protein levels [8]: significant reduction of PAX2 expression; also recorded: suppress PAX2 protein levels

Cc1cc(Cn2cnc3c2C[C@@H](C(=O)O)N(C(=O)C(c2ccccc2)c2ccccc2)C3)ccc1N(C)C [PD123319]
increase in PAX2 expression ([3]; DU145, 48 hours): 7 fold
increase in PAX2 expression ([3]; DU145, 96 hours): 8 fold

Angiotensin II (DRVYIHPF) [AngII]
decrease in DEFB1 expression relative to untreated hPrEC cells ([9]; 72 hours): 35%
decrease in DEFB1 expression relative to untreated hPrEC cells ([9]; 96 hours): 50%
increase in DEFB1 relative to untreated hPrEC cells ([9]; 96 hours): 79%
PAX2 expression ([3]; DU145, 30 min to 48 hour AngII treatment): progressively increased over time
increase in PAX2 expression relative to untreated hPrEC cells ([3]; hPrEC, 10 μM, 72 hours): 66%
PAX2 expression in hPrEC as % of PAX2 levels in PC3 cells ([3]; hPrEC, 72 hours): 77%
PAX2 expression in hPrEC as % of PAX2 expression in PC3 cells ([3]; hPrEC, 96 hours): 89%
proliferation rate ([6]; DU145, AngII treatment): two- to three-fold increase; also recorded: increases DU145 cell proliferation

N#CC(=C(/N)Sc1ccccc1N)/C(C#N)=C(\N)Sc1ccccc1N [Drug U0126, U0126]
phospho-JNK protein levels [1]: did not decrease phospho-JNK protein levels; also recorded: failed to decrease phospho-JNK protein levels
phospho-STAT3 protein levels [2]: reduced phospho-STAT3 protein levels; also recorded: suppress phospho-STAT3 protein levels
phospho-PAX2 protein levels [4]: significant decrease or suppression of phospho-PAX2 protein levels; also recorded: suppress phospho-PAX2 protein expression levels
PAX2 expression / protein levels [8]: significant reduction of PAX2 expression; also recorded: suppress PAX2 protein levels

COc1cccc(-c2cc(=O)c3ccccc3o2)c1N [PD98059]
phospho-STAT3 protein levels [2]: reduced phospho-STAT3 protein levels; also recorded: suppress phospho-STAT3 protein levels
phospho-PAX2 protein levels [4]: significant decrease or suppression of phospho-PAX2 protein levels; also recorded: suppress phospho-PAX2 protein expression levels
PAX2 expression / protein levels [8]: decreased PAX2; also recorded: suppress PAX2 protein levels

NC(=O)c1ncn([C@@H]2O[C@H](CO)[C@@H](O)[C@H]2O)c1N [AICAR, 5-Aminoimidazole-4-carboxamide-1-β-4-ribofuranoside]
phospho-STAT3 protein levels [2]: suppressed; also recorded: suppress phospho-STAT3 protein levels
phospho-PAX2 protein levels [4]: suppression; also recorded: suppress phospho-PAX2 protein expression levels
PAX2 expression / protein levels [8]: suppression of PAX2 pression expression; also recorded: suppress PAX2 protein levels
